Test results taken from patent US10995101B2, “2-oxo-thiazole derivatives as A2A inhibitors and compounds for use in the treatment of cancers” (iTeos Therapeutics SA, priority 2017, dated 2021).
Where two headings read alike, the source gives them in different places.

Tests used:
A2A receptor [1] = molecular target: T1, A2A receptor (Homo sapiens, UniProt P29274); assay: Inhibition of cAMP production in HEK cells; assay type: cell-based; settings: HEK-293 cells with A2A receptor
in vitro = settings: human, Caco-2, pH 7.4
A2A receptor [2] = molecular target: T1, A2A receptor; assay: Human IL-2 T cell assay (restoration of IL-2 production in CGS-21680-treated CD3+ T cells); assay type: cell-based; parameters: endogenous in cells; host or cells: human CD3+ T cells isolated from venous blood of healthy volunteers
Description: When T-cells are activated, they produce pro-inflammatory cytokines. When the A2A receptor is activated in T cells, the amount of cytokines produced in response to stimulation of T-cells is reduced.
Venous blood from healthy volunteers, all of whom signed an informed consent approved by the Ethics Committee (FOR-UIC-BV-050-01-01 ICF_HBS_HD Version 5.0), was obtained via ImmuneHealth (Centre Hospitalier Universitaire Tivoli, La Louviere, Belgium). Mononuclear cells were collected by density gradient centrifugation, using SepMate-50 tubes (StemCell Technologies, Grenoble, France) and Lymphoprep (Axis-shield, Oslo, Norway) according to the manufacturer's instructions. CD3+ T cells were isolated by immunomagnetic negative selection, using the EasySep Human T Cell Isolation Kit (StemCell Technologies) as per manufacturer's instructions. CD3+ T cells were stored in heat inactivated foetal bovine serum (hiFBS; Gibco, ThermoFisher Scientific, Merelbeke, Belgium) containing 10% DMSO in liquid nitrogen.
Human purified CD3+ T cells were thawed and washed twice with RPMI1640 medium (with UltraGlutamine; Lonza, Verviers, Belgium) supplemented with 1× non-essential amino acids (Lonza), 2% Pen/Strep (Lonza) and 1 mM Sodium Pyruvate (Gibco) (complete media), containing 10% hiFBS. The cells were suspended either in complete media containing 20% hiFBS or in 100% heat inactivated human serum (hiHS; Sigma-Aldrich, Diegem, Belgium). Cells were activated by adding anti-CD3 and anti-CD28 coated microbeads (Dynabeads human T-activator CD3/CD28; Life Technologies, Paisley, UK), suspended either in complete media containing 20% hiFBS or in 100% hiHS. […] Serial dilutions of the compounds of the present invention were prepared and added to the wells. The cells were placed in a 37° C. humidified tissue culture incubator with 5% CO2 for 72 hours. After 72 hours, supernatants were sampled and IL-2 was quantified using the IL-2 (human) AlphaLISA Biotin-Free Detection Kit (AL333F; Perkin-Elmer, Zaventem, Belgium), according to the manufacturer's instructions.

Caco-2 cells = assay: Permeability and efflux in Caco-2 cells; settings: Caco-2 monolayer, 2 μM, 120 minutes, pH 7.4
A2AR = A2AR (Mus musculus, UniProt Q60613); settings: for Score (locomotion / immobility): score observed in at least 60-100% of mice for 30 minutes
Chain of A2AR (Q60613 whole entry): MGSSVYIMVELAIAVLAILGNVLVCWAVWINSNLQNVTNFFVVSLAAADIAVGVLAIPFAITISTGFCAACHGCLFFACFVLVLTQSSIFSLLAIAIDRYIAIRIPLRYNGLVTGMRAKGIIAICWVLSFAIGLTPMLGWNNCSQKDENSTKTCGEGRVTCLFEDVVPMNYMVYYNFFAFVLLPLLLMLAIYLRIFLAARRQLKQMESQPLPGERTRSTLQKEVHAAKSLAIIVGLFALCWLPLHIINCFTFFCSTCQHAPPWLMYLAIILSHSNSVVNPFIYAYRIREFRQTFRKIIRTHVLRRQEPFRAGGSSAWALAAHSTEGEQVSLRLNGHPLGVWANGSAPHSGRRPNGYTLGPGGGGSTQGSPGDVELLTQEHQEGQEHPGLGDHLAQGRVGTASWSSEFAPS

[3] = IC50 (nM) (3 nM NECA as agonist, 0.1% BSA), 3 nM NECA as agonist, 0.1% BSA
[4] = IC50 (nM) (5 nM NECA as agonist, 2% HSA), 5 nM NECA as agonist, 2% HSA
[5] = IC50 (nM) (5 μM Adenosine as agonist, 2.0% HSA), 5 μM Adenosine as agonist, 2.0% HSA
[6] = IC50 (nM) (500 nM CGS-21680 as agonist, 10% FBS), restoration of IL-2 production, human CD3+ T cells, anti-CD3/CD28 beads, 500 nM CGS-21680, 10% FBS, 72 hours
[7] = IC50 (nM) (500 nM CGS-21680 as agonist, 50% HSA), restoration of IL-2 production, human CD3+ T cells, anti-CD3/CD28 beads, 500 nM CGS-21680, 50% HSA, 72 hours
[8] = IC50 (nM) (5000 nM CGS-21680 as agonist, 50% HSA), restoration of IL-2 production, human CD3+ T cells, anti-CD3/CD28 beads, 5000 nM CGS-21680, 50% HSA, 72 hours

T1 sequence (P29274 whole entry): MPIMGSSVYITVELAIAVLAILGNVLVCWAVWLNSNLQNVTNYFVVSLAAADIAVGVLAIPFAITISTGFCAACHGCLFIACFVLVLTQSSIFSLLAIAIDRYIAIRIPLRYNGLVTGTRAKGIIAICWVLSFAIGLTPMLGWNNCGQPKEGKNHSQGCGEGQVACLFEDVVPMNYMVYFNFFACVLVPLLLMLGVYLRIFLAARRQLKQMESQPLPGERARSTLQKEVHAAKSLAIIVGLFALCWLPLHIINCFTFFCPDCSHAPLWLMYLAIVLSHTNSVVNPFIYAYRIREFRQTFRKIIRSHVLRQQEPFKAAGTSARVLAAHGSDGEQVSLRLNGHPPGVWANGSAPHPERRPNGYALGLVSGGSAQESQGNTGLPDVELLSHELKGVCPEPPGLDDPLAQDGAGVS

Score (locomotion / immobility) (A2AR; 1 mg/kg PO 30 min prior to CGS21680) | Score (locomotion / immobility) (A2AR; 10 mg/kg PO 30 min prior to CGS21680) | effect on CGS21680 induced immobility (A2AR; P.O. at 10 mg/kg, 30 min prior to CGS21680) | Compound | IC50 (A2A receptor [1]; [3]) [nM] | IC50 (A2A receptor [1]; [4]) [nM] | IC50 (A2A receptor [1]; [5]) [nM] | efflux ratio at 120 min, 2 μM (in vitro) | IC50 (A2A receptor [2]) [nM] | IC50 (A2A receptor [2]; [6]) [nM] | IC50 (A2A receptor [2]; [7]) [nM] | IC50 (A2A receptor [2]; [8]) [nM] | Efflux ratio (Caco-2 cells)
 |  |  | Nc1nc2c(sc(=O)n2CCN2CCN(c3ccc(OCC(=O)O)cc3F)CC2)c2nc(-c3ccco3)nn12 [Compound 35, 2-(4-(4-(2-(5-amino-8-(furan-2-yl)-2-oxothiazolo[5,4-e][1,2,4]triazolo[1,5-c]pyrimidin-3(2H)-yl)ethyl)piperazin-1-yl)-3-fluorophenoxy)acetic acid] | 0.7 | 13 | 378 | 26 | 3.9 | 0.6 | 0.5 | 84 | 
 |  |  | CC(C)(Oc1ccc(N2CCN(CCn3c(=O)sc4c3nc(N)n3nc(-c5ccco5)nc43)CC2)c(F)c1)C(=O)O [Compound 39, 2-(4-(4-(2-(5-amino-8-(furan-2-yl)-2-oxothiazolo[5,4-e][1,2,4]triazolo[1,5-c]pyrimidin-3(2H)-yl)ethyl)piperazin-1-yl)-3-fluorophenoxy)-2-methylpropanoic acid] | 0.8 | 15 | 719 | 110 | 5.3 | 1 | 12 | 150 | 
 |  |  | Nc1nc2c(sc(=O)n2CCN2CCN(c3cc(OCC(=O)O)c(F)cc3F)CC2)c2nc(-c3ccco3)nn12 [Compound 43, 2-(5-(4-(2-(5-amino-8-(furan-2-yl)-2-oxothiazolo[5,4-e][1,2,4]triazolo[1,5-c]pyrimidin-3(2H)-yl)ethyl)piperazin-1-yl)-2,4-difluorophenoxy)acetic acid] | 0.2 | 1 | 36 | 164 |  |  |  | 51 | 
 |  |  | Nc1nc2c(sc(=O)n2CCN2CCN(c3ccc(C(=O)O)cc3F)CC2)c2nc(-c3ccco3)nn12 [Compound 44, 4-(4-(2-(5-amino-8-(furan-2-yl)-2-oxothiazolo[5,4-e][1,2,4]triazolo[1,5-c]pyrimidin-3(2H)-yl)ethyl)piperazin-1-yl)-3-fluorobenzoic acid] | 0.5 | 11 | 127 | 69 |  |  |  | 33 | 
 |  |  | Nc1nc2c(sc(=O)n2CCN2CCN(c3ccc(OCc4nc[nH]n4)cc3F)CC2)c2nc(-c3ccco3)nn12 [Compound 49, 3-(2-(4-(4-((1H-1,2,4-triazol-3-yl)methoxy)-2-fluorophenyl)piperazin-1-yl)ethyl)-5-amino-8-(furan-2-yl)thiazolo[5,4-e][1,2,4]triazolo[1,5-c]pyrimidin-2(3H)-one] | 0.5 | 16 | 465 | 97 |  |  |  | 61 | 
 |  |  | CNCCNC(=O)COc1ccc(N2CCN(CCn3c(=O)sc4c3nc(N)n3nc(-c5ccco5)nc43)CC2)c(F)c1 [Compound 50, 2-(4-(4-(2-(5-amino-8-(furan-2-yl)-2-oxothiazolo[5,4-e][1,2,4]triazolo[1,5-c]pyrimidin-3(2H)-yl)ethyl)piperazin-1-yl)-3-fluorophenoxy)-N-(2-(methylamino)ethyl)acetamide] | 0.3 |  | 13 | 38 | 4.3 | 1 | 2.2 | 28 | 
 |  |  | Nc1nc2c(sc(=O)n2CCN2CCN(c3cc(O[C@H]4CNC[C@@H]4F)c(F)cc3F)CC2)c2nc(-c3ccco3)nn12 [Compound 92, 5-amino-3-(2-(4-(2,4-difluoro-5-(((3S,4S)-4-fluoropyrrolidin-3-yl)oxy)phenyl)piperazin-1-yl)ethyl)-8-(furan-2-yl)thiazolo[5,4-e][1,2,4]triazolo[1,5-c]pyrimidin-2(3H)-one] | 0.7 |  | 388 |  |  |  |  |  | 101
+ | 0 | inhibited CGS21680 induced immobility | COCCOc1ccc(N2CCN(CCn3ncc4c3nc(N)n3nc(-c5ccco5)nc43)CC2)cc1 [Preladenant] |  |  |  |  |  |  |  |  | 
